From ChEMBL document CHEMBL1201862, “PubChem BioAssay data set” (2004)
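1) Cells in 96-well plates. 2) Compound, 48 h, 5 concentrations. 3) Linear interpolation between surrounding doses. 4) Unreached endpoint = highest concentration. Here, GI50 denotes the concentration required for 50% inhibition of growth.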 Calls of active or inactive are those of the source. No stated cut-off is given here; in the data, active = GI50 up to about 1.1 µM and inactive = higher.

How the values were obtained:
Test in all cases: DTP human tumour cell line panel, 48 h
A498 = tested on: A498
A549 = tested on: A549
COLO 205 = tested on: COLO 205
DMS-273 = tested on: DMS-273
DU-145 = tested on: DU-145
HCC 2998 = tested on: HCC 2998
HL-60 = tested on: HL-60
HOP-62 = tested on: HOP-62
HOP-92 = tested on: HOP-92
Hs-578T = tested on: Hs-578T
MDA-MB-231 = tested on: MDA-MB-231
MDA-MB-435 = tested on: MDA-MB-435
Malme-3M = tested on: Malme-3M
NCI-H460 = tested on: NCI-H460
NCI-H522 = tested on: NCI-H522
SF-539 = tested on: SF-539
SK-MEL-28 = tested on: SK-MEL-28
U-251 = tested on: U-251
UACC-257 = tested on: UACC-257
UO-31 = tested on: UO-31

Measured: GI50

O=C(c1ccc(Cl)cc1)c1cnc(Nc2ccccc2Cl)s1
inactive: A498 3.91 µM | A549 23.9 µM | COLO 205 37 µM | DMS-273 20.1 µM | DU-145 20.3 µM | HCC 2998 29 µM | HL-60 > 100 µM | HOP-62 25.1 µM | HOP-92 27.2 µM | Hs-578T 32.4 µM | MDA-MB-231 41.4 µM | MDA-MB-435 32.6 µM | Malme-3M 19 µM | NCI-H460 25.3 µM | NCI-H522 23 µM | SF-539 27.5 µM | SK-MEL-28 16.6 µM | U-251 28.1 µM | UACC-257 21 µM | UO-31 21.6 µM

COc1ccc(CC2NCCc3cc(OC)c(OC)cc32)cc1Br (stereo not given)
inactive: A498 30.1 µM | A549 56 µM | COLO 205 16.8 µM | DMS-273 22.4 µM | DU-145 > 100 µM | HCC 2998 18 µM | HL-60 14 µM | HOP-62 35.6 µM | HOP-92 15.1 µM | Hs-578T 19.2 µM | MDA-MB-231 22 µM | MDA-MB-435 25.1 µM | Malme-3M 17.3 µM | NCI-H460 21.2 µM | NCI-H522 34.4 µM | SF-539 77.8 µM | SK-MEL-28 16.6 µM | U-251 34.4 µM | UACC-257 17.3 µM | UO-31 28.2 µM

Nc1nc(F)nc2c1ncn2C1OC(COP(=O)(O)O)C(O)C1O (stereo not given)
inactive: A498 146 µM | A549 40.7 µM | COLO 205 95.1 µM | DMS-273 225 µM | DU-145 9.57 µM | HCC 2998 177 µM | HL-60 5.4 µM | HOP-62 8.53 µM | HOP-92 7.38 µM | Hs-578T 81.5 µM | MDA-MB-231 80.2 µM | MDA-MB-435 11.9 µM | Malme-3M 23.3 µM | NCI-H460 94 µM | NCI-H522 63.1 µM | SF-539 146 µM | SK-MEL-28 58.1 µM | U-251 231 µM | UACC-257 146 µM | UO-31 13.2 µM
